This is an account of results in patent US8609836B2, “4-aryl-2-anilino-pyrimidines” (Janssen Pharmaceutica NV, priority 2008, dated 2013).

One assay addresses AuroraB (h) (Homo sapiens, UniProt Q96GD4). Put plainly: Aurora-B human kinase inhibition, SPA. The class given is biochemical. The conditions noted are these: read-out: AuroraB pIC50 (converted). Summed up:
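AuroraB (0.5 μg/ml) phosphorylates 3 μM biotin-peptide using 0.5 μM ATP spiked with 33P-ATP in Hepes pH 7.5 with 3 mM MgCl2 and MnCl2, for 60 min at room temperature. EDTA stop solution carries streptavidin scintillant beads, and the captured radiolabel is imaged.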

Another assay has as its target CDK4/CyclinD1 (h) (Homo sapiens, UniProt P11802). As to the kind of experiment: CDK4/CyclinD1 human kinase inhibition, SPA with GST-pRb substrate. The class given is biochemical. The note with it: read-out: CDK4 pIC50 (converted). Summed up: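 Scintillation proximity format: after EDTA/Triton stop containing glutathione SPA beads, 33P incorporation was counted. The reaction ran 60 min at room temperature in Hepes pH 7.5 with NaF, MgCl2, DTT, using 2.5 μg/ml human CDK4/CyclinD1, 40 μg/ml GST-pRb substrate and 2 nM [γ-33P]ATP.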

For a further assay, the target named is PLK3 (h) (Homo sapiens, UniProt Q9H4B4). Put plainly: PLK3 human kinase inhibition, SPA. It counts as biochemical. The conditions noted are these: read-out: PLK3 pIC50 (converted). Summed up: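 Radiometric scintillation proximity format at pH 8.0 (Hepes, MnCl2, DTT). The 2 μM biotin-peptide substrate is phosphorylated by PLK3 (h) (30 μg/ml) using 0.1 μM ATP traced with 33P, for 20 min at room temperature. EDTA stop; phosphopeptide captured on streptavidin beads and imaged.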

In another assay the test system is H1299. Put plainly: Cellular proliferation assay (Alamar blue), H1299. The class given is cell-based. The note with it: Homo sapiens, NCI-H1299; 10% FCS; 72 hours with compound; Alamar blue 4 h. Put shortly: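 This proliferation assay on NCI-H1299 cells used an initial 24-hour compound-free incubation after seeding, followed by 72 hours of compound treatment with 10% FCS serum at 37° C. and 5% (v/v) CO2. Viable cells were quantified by a 4 h Alamar blue incubation and fluorescent plate reading at 544 nm/590 nm, and effects were expressed relative to control cells.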
Background: Resazurin is reduced to fluorescent resorufin, in cell work by metabolically active cells.

Sequence of PLK3 (h) (Q9H4B4 whole entry): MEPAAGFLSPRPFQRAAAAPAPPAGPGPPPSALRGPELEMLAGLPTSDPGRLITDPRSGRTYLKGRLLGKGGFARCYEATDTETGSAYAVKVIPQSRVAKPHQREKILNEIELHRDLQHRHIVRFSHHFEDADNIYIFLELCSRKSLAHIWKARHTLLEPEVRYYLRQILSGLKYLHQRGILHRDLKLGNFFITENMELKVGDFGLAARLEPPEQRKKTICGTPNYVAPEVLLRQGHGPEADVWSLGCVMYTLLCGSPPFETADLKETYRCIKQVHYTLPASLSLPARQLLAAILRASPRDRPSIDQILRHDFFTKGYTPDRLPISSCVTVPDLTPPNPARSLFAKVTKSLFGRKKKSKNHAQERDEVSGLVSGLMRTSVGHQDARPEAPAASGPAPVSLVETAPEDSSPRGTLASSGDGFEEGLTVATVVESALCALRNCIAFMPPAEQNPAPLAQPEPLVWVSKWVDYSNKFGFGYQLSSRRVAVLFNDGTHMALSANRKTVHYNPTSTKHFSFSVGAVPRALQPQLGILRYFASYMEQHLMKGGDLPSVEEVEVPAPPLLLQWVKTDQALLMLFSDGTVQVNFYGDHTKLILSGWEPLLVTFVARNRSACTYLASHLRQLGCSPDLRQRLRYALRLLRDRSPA
Sequence of CDK4/CyclinD1 (h) (P11802 whole entry): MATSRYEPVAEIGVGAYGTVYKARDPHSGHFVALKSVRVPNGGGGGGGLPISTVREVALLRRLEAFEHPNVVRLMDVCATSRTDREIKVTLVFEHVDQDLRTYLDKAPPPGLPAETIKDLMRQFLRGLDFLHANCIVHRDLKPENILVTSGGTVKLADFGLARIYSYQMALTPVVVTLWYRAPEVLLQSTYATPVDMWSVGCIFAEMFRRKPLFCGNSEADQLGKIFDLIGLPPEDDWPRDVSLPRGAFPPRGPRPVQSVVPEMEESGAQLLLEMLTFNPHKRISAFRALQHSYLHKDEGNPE
Sequence of CDK4/CyclinD1 (h) (P24385 whole entry partner): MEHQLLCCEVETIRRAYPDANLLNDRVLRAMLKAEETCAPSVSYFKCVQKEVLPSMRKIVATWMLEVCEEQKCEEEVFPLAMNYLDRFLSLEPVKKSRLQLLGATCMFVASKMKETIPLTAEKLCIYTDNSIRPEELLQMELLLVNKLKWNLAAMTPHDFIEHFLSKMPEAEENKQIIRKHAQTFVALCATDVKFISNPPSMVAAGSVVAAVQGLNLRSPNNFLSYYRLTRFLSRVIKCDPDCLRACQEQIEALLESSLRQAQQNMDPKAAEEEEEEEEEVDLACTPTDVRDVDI
Sequence of AuroraB (h) (Q96GD4 whole entry): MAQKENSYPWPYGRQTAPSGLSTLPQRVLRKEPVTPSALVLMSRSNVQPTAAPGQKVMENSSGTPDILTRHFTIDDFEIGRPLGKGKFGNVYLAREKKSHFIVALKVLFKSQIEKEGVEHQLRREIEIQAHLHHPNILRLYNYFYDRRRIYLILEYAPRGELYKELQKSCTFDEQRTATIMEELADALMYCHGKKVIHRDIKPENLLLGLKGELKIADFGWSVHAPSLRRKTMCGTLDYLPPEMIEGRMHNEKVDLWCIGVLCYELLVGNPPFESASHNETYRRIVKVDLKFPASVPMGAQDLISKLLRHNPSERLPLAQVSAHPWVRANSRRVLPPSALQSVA

Turning to `COc1ccc2cc1CN(C)CCNC(=O)[C@@H]1CCCN1Cc1cc(NCCc3ccccc3)cc(c1)Nc1nccc-2n1` [Compound 163], the IC50 at AuroraB (h), on CDK4/CyclinD1 (h), at PLK3 (h) and in the assay on H1299 was above 10 µM each time.
In the case of `COc1ccc2cc1CN(C)CCNC(=O)[C@@H]1CCCN1Cc1cc(cc(N3CCOCC3)c1)Nc1nccc-2n1` [Compound 152], the IC50 at AuroraB (h) was 7.94 µM; at CDK4/CyclinD1 (h), above 10 µM; at PLK3 (h) it was above 10 µM; with H1299, above 10 µM.
For `O=C1CN2CCN(CC2)Cc2cc(ccc2N2CCOCC2)Nc2nccc(n2)-c2ccc(cc2)CN1` [Compound 194], the IC50 is above 10 µM at AuroraB (h), 1.7 µM at CDK4/CyclinD1 (h), above 10 µM at PLK3 (h) and above 10 µM with H1299.
As to `O=C1NCc2ccc(cc2)-c2ccnc(n2)Nc2ccc(N3CCOCC3)c(c2)CN2CCC[C@@H]12` [Compound 49], the IC50 at AuroraB (h), on CDK4/CyclinD1 (h), at PLK3 (h) and in the assay on H1299 was above 10 µM throughout.
As to `COc1cc2cc(c1)Nc1nccc(n1)-c1ccc(cc1)CN(C)CCCNC(=O)[C@@H]1CCCN1C2` [Compound 156], the IC50 at AuroraB (h) is above 10 µM; at CDK4/CyclinD1 (h), above 10 µM; on PLK3 (h) it was 8.51 µM; in the assay on H1299 it was above 10 µM.
Take `O=C1NCc2cccc(c2)-c2ccnc(n2)Nc2ccc(N3CCOCC3)c(c2)CN2C[C@@H](O)C[C@@H]12` [Compound 27]: the IC50 on AuroraB (h) was above 10 µM; at CDK4/CyclinD1 (h), 1.78 µM; at PLK3 (h), above 10 µM; in the assay on H1299, 2.95 µM.
On to `CN1CCN(C(=O)c2cc3cc(c2)Nc2nccc(n2)-c2cccc(c2)CNC(=O)[C@@H]2CCCN2C3)CC1` [Compound 34], for which the IC50 was above 10 µM at AuroraB (h), 8.71 µM at CDK4/CyclinD1 (h), above 10 µM on PLK3 (h) and 6.17 µM with H1299.
`C[C@@H]1NCc2cc(ccc2N2CCOCC2)Nc2nccc(n2)-c2cccc(c2)CNC1=O` [Compound 182]: the IC50 at AuroraB (h) was above 10 µM; at CDK4/CyclinD1 (h) it was 6.03 µM; at PLK3 (h), above 10 µM; with H1299, above 10 µM.
Consider `O=C1NCc2ccc(cc2)-c2ccnc(n2)Nc2ccc(N3CCOCC3)c(c2)CN2C[C@H](O)C[C@@H]12` [Compound 56], for which the IC50 at AuroraB (h), on CDK4/CyclinD1 (h), at PLK3 (h) and in the assay with H1299 was above 10 µM throughout.
Regarding `O=C1NCc2cccc(c2)-c2ccnc(n2)Nc2cc(ccc2Cl)CN2CCC[C@@H]12` [Compound 51], the IC50 on AuroraB (h), at CDK4/CyclinD1 (h), on PLK3 (h) and in the assay with H1299 was above 10 µM throughout.
For `O=C1NCc2ccc(cc2)-c2ccnc(n2)Nc2ccc(N3CCOCC3)c(c2)CN2CCC1CC2` [Compound 12], the IC50 is 2.29 µM at AuroraB (h), 1.58 µM on CDK4/CyclinD1 (h), above 10 µM at PLK3 (h) and 1.58 µM in the assay on H1299.
On to `COc1cc2cc(c1)Nc1nccc(n1)-c1ccc(OC)c(c1)CN(C)CCCNC(=O)[C@@H]1CCCN1C2` [Compound 171], for which the IC50 on AuroraB (h), at CDK4/CyclinD1 (h), at PLK3 (h) and with H1299 was above 10 µM throughout.
On to `COc1cc2cc(c1)Nc1nccc(n1)-c1ccc(cc1)CN(C)CCNC(=O)C1CCN(CC1)C2` [Compound 62], for which the IC50 on AuroraB (h) is above 10 µM; at CDK4/CyclinD1 (h), above 10 µM; at PLK3 (h), 9.77 µM; with H1299 it was above 10 µM.
As for `CN1CCN(C)c2ccc(cn2)-c2ccnc(n2)Nc2cc(c3c(c2)OCO3)CN2CCC[C@H]2C1=O` [Compound 168], the IC50 on AuroraB (h) is 2.57 µM; at CDK4/CyclinD1 (h), 2.14 µM; at PLK3 (h) it was above 10 µM; in the assay on H1299, above 10 µM.
Take `CC(C)Nc1cc2cc(c1)Nc1nccc(n1)-c1ccc(cc1)CN(C)CCCNC(=O)C1CCN(CC1)C2` [Compound 65]: the IC50 on AuroraB (h), on CDK4/CyclinD1 (h), on PLK3 (h) and with H1299 was above 10 µM each time.
Take `COc1cc2cc(c1)Nc1nccc(n1)-c1ccc(OC)c(c1)CN(C)CCCNC(=O)C1CCN(CC1)C2` [Compound 73]: the IC50 at AuroraB (h), on CDK4/CyclinD1 (h), at PLK3 (h) and in the assay on H1299 was above 10 µM each time.
Consider `C[C@@H]1NCc2ccc(cc2)Nc2nccc(n2)-c2cccc(c2)CNC1=O` [Compound 190], for which the IC50 at AuroraB (h), at CDK4/CyclinD1 (h), on PLK3 (h) and in the assay with H1299 was above 10 µM each time.
For the compound `C[C@@H]1NCc2cccc(c2)Nc2nccc(n2)-c2cccc(c2)CNC1=O` [Compound 184], the IC50 at AuroraB (h) was above 10 µM; on CDK4/CyclinD1 (h), 1.17 µM; at PLK3 (h), above 10 µM; in the assay with H1299 it was 9.77 µM.
With `COc1cc2cc(c1OC)CN1CCC[C@H]1C(=O)N(C)CCN(C)c1cc(ccn1)-c1ccnc(n1)N2` [Compound 17], the IC50 at AuroraB (h), on CDK4/CyclinD1 (h), on PLK3 (h) and in the assay with H1299 was above 10 µM throughout.
`COc1ccc2cc1CN(C)CCNC(=O)[C@H](CO)NCc1cc(cc(N3CCOCC3)c1)Nc1nccc-2n1` [Compound 105]: the IC50 at AuroraB (h) was 4.79 µM; on CDK4/CyclinD1 (h), above 10 µM; at PLK3 (h) it was above 10 µM; in the assay with H1299 it was above 10 µM.
